Several values for one entry are separate records, joined by “and”; a condition that tells them apart may be missing. Identical values can stand only once. Values belong to the compound of their own block, whether it stands above or below them.
What was measured:
[1] = test system: senile plaques and neurofibrillary tangles; experiment: In vitro autoradiographic binding to triple transgenic mouse sagittal brain slices; parameters: species or system triple transgenic mice; conditions: for selectivity of binding to the plaques: triple transgenic mice brain slices
Experimental: (§1) In vitro studies of ^18F-FBM were carried out on coronal and horizontal mice brain slices (both wild-type and Tg 2576), which were obtained on a Leica 1850 cryotome. Mice brain-region slices (hippocampus and frontal cortex of 24-month old wild-type and Tg 2576; 10 μm thick) were preincubated in buffer (0.9% saline) for 10 minutes. Subsequently, the mice brain slices were incubated with ^18F-FBM (6.8 μCi/cc) in 0.9% saline, pH 7.4 at 37° C. for 1 hr. For nonspecific binding, brain slices were treated with 10 μM FDDNP. Slices were washed with cold millipore water, 70% alcohol, 90%, alcohol, 70% alcohol, and water for 2, 1, 1, 1, and 1 min, respectively. The slices were air dried then exposed overnight onto a phosphor screen and read by the Phosphor Autoradiographic Imaging System/Cyclone Storage Phosphor System (Packard Instruments Co). Regions of interest were drawn on various regions of the slices and the extent of binding of ^18F-FBM was computed as DLU/mm^2 using the OptiQuant acquisition and analysis program (Packard Instruments Co).
(§2) Similar experiments were carried out in adjacent slices using ^18F-FDDNP (7.8 μCi/cc) for comparison. For evaluating the amount of plaque present in the brain slices, adjacent brain slices were also stained for the peptide fragment Aβ17-24 which is representative of the amount of Aβ40 and Aβ42 plaque aggregates using reported 4G8 immunostaining methods of UCI-Institute for Brain Aging and Dementia (Head E, Moffat K, Das P, Sarsoza E, Poon W W, Landsberg G, Cotman C W, Muphy M P. (2005). Beta-amyloid deposition and tau phosphorylation in clinically characterized aged cats. Neurobiology of Aging 26(5): 749-763). Beta-amyloid deposition and tau phosphorylation in clinically characterized aged cats. Neurobiology of Aging 26(5): 749-763).
Sagittal brain slices of 18 month old triple transgenic mice were then studied. These mice have been known to have an extensive amount of senile plaques and neurofibrillary tangles accumulation in several regions of the brain. These regions include the hippocampus, cortex, thalamus, brain stem and other regions. Binding of ^18F-FBM and ^18F-FDDNP to 10 micron thick slices of triple transgenic mice brains is depicted in FIG. 3 along with antibody staining for plaques. More specifically, FIG. 3A depicts antibody staining in the hippocampus and frontal cortex regions, which was also confirmed by thioflavin S staining in an adjacent slice (shown in inset in FIG. 3A). […] Regions of the hippocampus and the frontal cortex (arrows pointing) that contain the plaques are clearly evident.
The binding of ^18F-FBM in the various plaque containing regions was also quantitatively evaluated as a ratio plot shown in FIGS. 4A and 4B. Cerebellum and striatum were used as reference regions. […] The ratio between the frontal cortex regions showing plaques was between 6 and 7 while the hippocampus was between 3.5 and 4.5 as can be taken from FIG. 4A. […] On the other hand, in the case of ^18F-FDDNP, the binding ratios with respect to cerebellum were 1.5 and 2.0 as can be taken from FIG. 4B.

[2] = Relative lipophilicity from reverse-phase HPLC elution order; assay type: physicochemical; conditions: elutes first
Experimental: For the radiosynthesis step, high specific activity ^18F-fluoride (approximately 100 milliCurie) was produced in the MC-17 cyclotron. Fluorine-18 radioactivity count was measured in a Capintec dose calibrator, while low-level counts were measured out in a well-counter (Cobra Quantum, Packard Instruments Co). Direct radiolabeling of the tosylate precursor was done by using ^18F-fluoride in a solution of 19 mg of Kryptofix 2.2.2 and 0.75 mg potassium carbonate in acetonitrile. The mixture was heated at 85° C. for 20 minutes. After cooling, the mixture was transferred onto a neutral alumina Sep-Pak Cartridge to remove unreacted ^18F-fluoride. Chromatographic separations were preformed on semi-preparative reverse-phase C18 column (length=[…], ID=4.6 mm) using the Gilson high performance liquid chromatography (HPLC) systems. Decay-corrected radiochemical yield was approx. 20%. Retention time of ^18F-FBM was 14 mins compared to 15.7 mins for ^18F-FDDNP (for separation protocol, see e.g., Agdeppa E D et al. (2001) Binding Characteristics of Radiofluorinated 6-Dialkylamino-2-Naphthylethylidene Derivatives as Positron Emission Tomography Imaging Probes for Beta-Amyloid Plaques in Alzheimer's Disease. The Journal of Neuroscience 21, 1-5). ^18F-FBM was collected and prepared for in vitro binding studies. […]

[3] = target: T1, β-amyloid plaques (Homo sapiens, UniProt P05067); experiment: In vitro autoradiographic binding to Tg2576 mouse hippocampal brain slices; parameters: representative of the amount of Aβ40 and Aβ42 plaque aggregates; from tissue; host or cells: hippocampal brain slices of 24-month old Tg2576 transgenic mice; species or system Tg2576 transgenic mice; conditions: for ratio of binding in plaque to non-plaque areas within the same slice: 10 μm hippocampal slice of 24-month old Tg2576 mouse
T1 sequence (P05067 672-713 limits assumed): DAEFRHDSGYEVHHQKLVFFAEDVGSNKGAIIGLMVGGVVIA
Experimental: as §1, §2
Hippocampal slice of 24-month old transgenic mouse (Tg2576, transgenic mice expressing mutant APP) stained for Aβ17-24 using 4G8 immunostaining confirmed presence of β-amyloid plaques found in Alzheimer's disease (FIGS. 1A and 2A depicting 10 μm thick horizontal hippocampal slice of 24-month old transgenic mouse (Tg2576) stained for Aβ17-24 using 4G8 immunostaining. Arrow indicates amyloid plaques.). Adjacent hippocampal slices radiolabeled with ^18F-FBM and ^18F-FDDNP indicated binding to amyloid plaques and corresponded to the 4G8 stain (FIGS. 1B and 2B depicting adjacent hippocampal slice shown in (A) but radiolabeled with high-specific activity ^18F-FBM or ^18F-FDDNP. Arrow indicates binding of ^18F-FBM or ^18F-FDDNP to the amyloid plaques and corresponds to the 4G8 stain.). The specific binding to amyloid plaques was reduced in the presence of 10 μM FDDNP (FIGS. 1C and 2C; FIG. 1C depicts adjacent hippocampal slice shown in (B) radiolabeled with high-specific activity ^18F-FBM in the presence of 10 μM FDDNP. Specific binding to regions containing plaques is reduced; and FIG. 2C depicts adjacent hippocampal slice in cold FDDNP. Specific binding to plaque regions is reduced). Alcohol was used for washing the medium to remove nonspecific binding. The ratio of binding in plaque to non-plaque areas within the same slice for ^18F-FBM was 2.1 while that for ^18F-FDDNP was 1.4; and in the presence of 10 μM FDDNP, these ratios went down to 1.6 and 1.2, respectively.

[4] = target: T1, β-amyloid plaques; experiment: In vitro autoradiographic binding of 18F-FPCUR to transgenic mice brain slices; parameters: from tissue; host or cells: sagittal brain sections of Tg 2576 and 3×Tg transgenic mice, 1 to 24 months; species or system transgenic mice (Tg 2576 and 3×Tg)
Experimental: Preliminary binding to rat brain slices of ^18F-fluoropropyl curcumin was carried out at 37° C. in Tris buffer, 50 mM, pH 7.4 for one hour, and further testing of ^18F-FPCUR for binding to β-amyloid plaques was carried out transgenic mice brains. […] Brain slices were pre-incubated for 10 mins in incubation buffer, 0.1 M Tris, 0.1 M NaCl, 0.5% Tween and 0.1% BSA, pH 7.4. Incubation was carried out in 0.1 M Tris, 0.1 M NaCl, 0.5% Tween and 0.1% BSA, pH 7.4 with ^18F-FPCUR (3 μCi/cc) at 37° C. for 1 hr. […] Slices were washed with cold buffer, 2×2 min, rinsed with cold water and air dried. Autoradiograms were obtained of various slices and binding of ^18F-FPCUR was quantitated using Optiquant Image analysis program. […] For evaluating the amount of plaque present in the brain slices, adjacent brain slices were also stained using reported immunostaining methods.

SMILES: CC(/C=C/c1ccc(N(C)CC[18F])cc1)=C(C#N)C#N [18F-FBM, 4′-[(2-[^18F]fluoroethyl)(methyl)amino]-4-phenyl-3-buten-2-malonitrile]
selectivity of binding to the plaques [1]: selective binding | lipophilicity relative to 18F-FDDNP [2]: less lipophilic | ratio of binding in plaque to non-plaque areas within the same slice ([3]; in the presence of 10 μM FDDNP): 1.6 | ratio of binding in plaque to non-plaque areas within the same slice ([3]; no competitor): 2.1 | specific binding to amyloid plaque regions compared to 18F-FDDNP ([3]; Tg2576 hippocampal slices): higher specific binding

SMILES: CC(=C(C#N)C#N)c1ccc2cc(N(C)CC[18F])ccc2c1 [18F-FDDNP, 2-(1-{6-[(2-[^18F]fluoroethyl)(methyl)amino]-2-naphtyl}ethylidene)malonitrile]
binding ratios with respect to cerebellum ([1]; 18 month old triple transgenic mice, FIG. 4B): 1.5 and 2.0 | selectivity of binding to the plaques [1]: less selective | binding in the cerebellum (no significant amount of plaques) ([1]; triple transgenic mice, FIG. 3D): significant amount of binding | ratio of binding in plaque to non-plaque areas within the same slice ([3]; in the presence of 10 μM FDDNP): 1.2 | ratio of binding in plaque to non-plaque areas within the same slice ([3]; no competitor): 1.4

SMILES: COc1cc(/C=C/C(=O)CC(=O)/C=C/c2ccc(OCCC[18F])c(OC)c2)ccc1O [18F-FPCUR, ^18F-fluoropropylcurcumin]
binding in the cerebellum (CB) ([4]; FIG. 7): little binding | binding in older transgenic mice ([4]; older transgenic mice): Increased binding

displacement of 18F-FPCUR binding by competitor ([4]; 10 μM competitor): displaced
SMILES: COc1cc(/C=C/C(=O)CC(=O)/C=C/c2ccc(O)c(OC)c2)ccc1O [Curcumin]

SMILES: CC(C=Cc1ccc(N(C)CCF)cc1)=C(C#N)C#N [FBM]
effect of competitor on binding of 18F-FDDNP in the hippocampus ([1]; FBM (1 mM), FIG. 3F): reduced

SMILES: CC(=C(C#N)C#N)c1ccc2cc(N(C)CCF)ccc2c1 [FDDNP]
effect of competitor on selective binding of 18F-FBM to plaque regions ([1]; 1 μM FDDNP, FIG. 3E): significantly reduced
